In PubChem BioAssay (NCI):
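96-well plates; 48 h exposure; 5 concentrations. Endpoints by linear interpolation between flanking doses. Not reached: highest tested concentration assigned. The concentration for 50% growth inhibition is given as GI50. TGI denotes the concentration required for complete inhibition of growth.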

Legend:
Experiment in all cases: NCI tumour cell line growth inhibition, 48 h
COLO 205 colon = test system: COLO 205 colon
KM12 colon = test system: KM12 colon
M14 melanoma = test system: M14 melanoma
HCT-116 colon = test system: HCT-116 colon
SN12C renal = test system: SN12C renal
OVCAR-3 ovarian = test system: OVCAR-3 ovarian
T-47D breast = test system: T-47D breast
SK-MEL-5 melanoma = test system: SK-MEL-5 melanoma
SF-268 CNS = test system: SF-268 CNS
UO-31 renal = test system: UO-31 renal
SK-MEL-28 melanoma = test system: SK-MEL-28 melanoma
MDA-MB-435 = test system: MDA-MB-435
U251 CNS = test system: U251 CNS
RXF 393 renal = test system: RXF 393 renal
MOLT-4 leukemia = test system: MOLT-4 leukemia
UACC-257 melanoma = test system: UACC-257 melanoma
HOP-62 NSCLC = test system: HOP-62 NSCLC
HS 578T breast = test system: HS 578T breast
NCI-H460 lung = test system: NCI-H460 lung
OVCAR-5 ovarian = test system: OVCAR-5 ovarian
HCC-2998 colon = test system: HCC-2998 colon
EKVX NSCLC = test system: EKVX NSCLC
SW-620 colon = test system: SW-620 colon
TK-10 renal = test system: TK-10 renal
LOX IMVI melanoma = test system: LOX IMVI melanoma
HT29 colon = test system: HT29 colon
UACC-62 melanoma = test system: UACC-62 melanoma
SK-MEL-2 melanoma = test system: SK-MEL-2 melanoma
OVCAR-8 ovarian = test system: OVCAR-8 ovarian
HCT-15 colon = test system: HCT-15 colon
RPMI-8226 leukemia = test system: RPMI-8226 leukemia
SF-295 CNS = test system: SF-295 CNS
A549 NSCLC = test system: A549 NSCLC
HOP-92 NSCLC = test system: HOP-92 NSCLC
CAKI-1 renal = test system: CAKI-1 renal
MDA-MB-468 breast = test system: MDA-MB-468 breast
MDA-MB-231 breast = test system: MDA-MB-231 breast
CCRF-CEM leukemia = test system: CCRF-CEM leukemia
BT-549 breast = test system: BT-549 breast
ACHN renal = test system: ACHN renal
DU-145 prostate = test system: DU-145 prostate
PC-3 prostate = test system: PC-3 prostate
K-562 leukemia = test system: K-562 leukemia
SR leukemia = test system: SR leukemia
IGROV1 ovarian = test system: IGROV1 ovarian
MCF7 breast = test system: MCF7 breast
SNB-75 CNS = test system: SNB-75 CNS
NCI-H226 lung = test system: NCI-H226 lung
NCI-H23 lung = test system: NCI-H23 lung
HL-60(TB) leukemia = test system: HL-60(TB) leukemia
NCI-H522 lung = test system: NCI-H522 lung
SNB-19 CNS = test system: SNB-19 CNS
OVCAR-4 ovarian = test system: OVCAR-4 ovarian
MALME-3M melanoma = test system: MALME-3M melanoma
NCI/ADR-RES ovarian = test system: NCI/ADR-RES ovarian
SK-OV-3 ovarian = test system: SK-OV-3 ovarian
SF-539 CNS = test system: SF-539 CNS
786-0 renal = test system: 786-0 renal
A498 renal = test system: A498 renal

Compound: CCCn1c(=O)c2[nH]c(-c3ccc(OCc4nc5ccc(C)cc5[nH]4)cc3)nc2n(CCC)c1=O
- GI50 (COLO 205 colon): 84.7 µM
- TGI (COLO 205 colon): > 100 µM
- GI50 (KM12 colon): > 100 µM
- TGI (KM12 colon): > 100 µM
- GI50 (M14 melanoma): 21.3 µM
- TGI (M14 melanoma): > 100 µM
- GI50 (HCT-116 colon): 11.3 µM
- TGI (HCT-116 colon): 27.8 µM
- GI50 (SN12C renal): 3.78 µM
- TGI (SN12C renal): 18.1 µM
- GI50 (OVCAR-3 ovarian): 8.62 µM
- TGI (OVCAR-3 ovarian): 85.9 µM
- GI50 (T-47D breast): 16.9 µM
- TGI (T-47D breast): 47.2 µM
- GI50 (SK-MEL-5 melanoma): 13.7 µM
- TGI (SK-MEL-5 melanoma): 31.5 µM
- GI50 (SF-268 CNS): 12.6 µM
- TGI (SF-268 CNS): > 100 µM
- GI50 (UO-31 renal): 1.98 µM
- TGI (UO-31 renal): 7.27 µM
- GI50 (SK-MEL-28 melanoma): 15.9 µM
- TGI (SK-MEL-28 melanoma): > 100 µM
- GI50 (MDA-MB-435): 31 µM
- TGI (MDA-MB-435): > 100 µM
- GI50 (U251 CNS): 4.06 µM
- TGI (U251 CNS): 17 µM
- GI50 (RXF 393 renal): 1.62 µM
- TGI (RXF 393 renal): 5.12 µM
- GI50 (MOLT-4 leukemia): 12.2 µM
- TGI (MOLT-4 leukemia): > 100 µM
- GI50 (UACC-257 melanoma): 40.9 µM
- TGI (UACC-257 melanoma): > 100 µM
- GI50 (HOP-62 NSCLC): 4.12 µM
- TGI (HOP-62 NSCLC): 16.9 µM
- GI50 (HS 578T breast): 2.36 µM
- TGI (HS 578T breast): 11.1 µM
- GI50 (NCI-H460 lung): 6.04 µM
- TGI (NCI-H460 lung): 23.1 µM
- GI50 (OVCAR-5 ovarian): 18.5 µM
- TGI (OVCAR-5 ovarian): 76.8 µM
- GI50 (HCC-2998 colon): 29 µM
- TGI (HCC-2998 colon): > 100 µM
- GI50 (EKVX NSCLC): 20.7 µM
- TGI (EKVX NSCLC): > 100 µM
- GI50 (SW-620 colon): 32.5 µM
- TGI (SW-620 colon): > 100 µM
- GI50 (TK-10 renal): 10.7 µM
- TGI (TK-10 renal): 23.1 µM
- GI50 (LOX IMVI melanoma): 4.72 µM
- TGI (LOX IMVI melanoma): 17.3 µM
- GI50 (HT29 colon): 29.6 µM
- TGI (HT29 colon): > 100 µM
- GI50 (UACC-62 melanoma): 10 µM
- TGI (UACC-62 melanoma): 25.6 µM
- GI50 (SK-MEL-2 melanoma): 16.8 µM
- TGI (SK-MEL-2 melanoma): 33.2 µM
- GI50 (OVCAR-8 ovarian): 5.3 µM
- TGI (OVCAR-8 ovarian): 24.8 µM
- GI50 (HCT-15 colon): 14.7 µM
- TGI (HCT-15 colon): > 100 µM
- GI50 (RPMI-8226 leukemia): 9.71 µM
- TGI (RPMI-8226 leukemia): > 100 µM
- GI50 (SF-295 CNS): 2.65 µM
- TGI (SF-295 CNS): 13.1 µM
- GI50 (A549 NSCLC): 13.5 µM
- TGI (A549 NSCLC): > 100 µM
- GI50 (HOP-92 NSCLC): 2.29 µM
- TGI (HOP-92 NSCLC): 9.1 µM
- GI50 (CAKI-1 renal): 4.55 µM
- TGI (CAKI-1 renal): 25.1 µM
- GI50 (MDA-MB-468 breast): 8.62 µM
- TGI (MDA-MB-468 breast): 27.6 µM
- GI50 (MDA-MB-231 breast): 3.48 µM
- TGI (MDA-MB-231 breast): 14.5 µM
- GI50 (CCRF-CEM leukemia): 32.8 µM
- TGI (CCRF-CEM leukemia): > 100 µM
- GI50 (BT-549 breast): 14 µM
- TGI (BT-549 breast): 46.7 µM
- GI50 (ACHN renal): 3.29 µM
- TGI (ACHN renal): 13.4 µM
- GI50 (DU-145 prostate): 66.4 µM
- TGI (DU-145 prostate): > 100 µM
- GI50 (PC-3 prostate): 9.66 µM
- TGI (PC-3 prostate): > 100 µM
- GI50 (K-562 leukemia): 22.3 µM
- TGI (K-562 leukemia): > 100 µM
- GI50 (SR leukemia): > 100 µM
- TGI (SR leukemia): > 100 µM
- GI50 (IGROV1 ovarian): 10.1 µM
- TGI (IGROV1 ovarian): 38.7 µM
- GI50 (MCF7 breast): 7.35 µM
- TGI (MCF7 breast): 36.6 µM
- GI50 (SNB-75 CNS): 1.54 µM
- TGI (SNB-75 CNS): 4.62 µM
- GI50 (NCI-H226 lung): 2.91 µM
- TGI (NCI-H226 lung): 13.2 µM
- GI50 (NCI-H23 lung): 12 µM
- TGI (NCI-H23 lung): 24.4 µM
- GI50 (HL-60(TB) leukemia): 46.2 µM
- TGI (HL-60(TB) leukemia): > 100 µM
- GI50 (NCI-H522 lung): 17.2 µM
- TGI (NCI-H522 lung): 42.3 µM
- GI50 (SNB-19 CNS): 6 µM
- TGI (SNB-19 CNS): 28.6 µM
- GI50 (OVCAR-4 ovarian): 2.73 µM
- TGI (OVCAR-4 ovarian): > 100 µM
- GI50 (MALME-3M melanoma): 7.28 µM
- TGI (MALME-3M melanoma): 20.5 µM
- GI50 (NCI/ADR-RES ovarian): 11 µM
- TGI (NCI/ADR-RES ovarian): 64.5 µM
- GI50 (SK-OV-3 ovarian): 12.1 µM
- TGI (SK-OV-3 ovarian): 27 µM
- GI50 (SF-539 CNS): 2.61 µM
- TGI (SF-539 CNS): 7.98 µM
- GI50 (786-0 renal): 3.06 µM
- TGI (786-0 renal): 12.1 µM
- GI50 (A498 renal): 2.43 µM
- TGI (A498 renal): 10.6 µM
